Columns and labels:
human OATP2B1 = target: T1, human OATP2B1 (Homo sapiens, UniProt O94956); test: Cellular transport assay, HEK-293 cells expressing human OATP2B1; conditions: Danshen phenolic acid at 100 μM final concentration, 10 min; human OATP2B1-transfected vs mock cells
T1 sequence (O94956 1-709): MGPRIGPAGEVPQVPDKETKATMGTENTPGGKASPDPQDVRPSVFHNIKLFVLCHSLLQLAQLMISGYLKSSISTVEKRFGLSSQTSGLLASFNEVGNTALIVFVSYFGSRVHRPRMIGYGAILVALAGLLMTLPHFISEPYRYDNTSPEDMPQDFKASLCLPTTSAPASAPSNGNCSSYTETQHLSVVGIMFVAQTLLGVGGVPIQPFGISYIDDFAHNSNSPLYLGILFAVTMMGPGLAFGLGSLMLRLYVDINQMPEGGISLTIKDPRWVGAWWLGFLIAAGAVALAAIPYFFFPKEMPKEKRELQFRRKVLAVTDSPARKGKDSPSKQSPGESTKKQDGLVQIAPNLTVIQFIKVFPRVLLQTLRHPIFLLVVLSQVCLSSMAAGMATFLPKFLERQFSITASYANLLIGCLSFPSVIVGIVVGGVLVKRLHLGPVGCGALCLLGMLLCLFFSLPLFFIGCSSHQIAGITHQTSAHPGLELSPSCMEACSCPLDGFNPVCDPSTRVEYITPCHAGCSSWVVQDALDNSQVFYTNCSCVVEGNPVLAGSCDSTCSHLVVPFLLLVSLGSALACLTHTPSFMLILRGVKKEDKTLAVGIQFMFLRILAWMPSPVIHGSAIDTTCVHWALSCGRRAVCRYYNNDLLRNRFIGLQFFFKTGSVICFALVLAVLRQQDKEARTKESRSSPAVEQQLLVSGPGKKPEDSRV

rat Pept1 = target: T2, rat Pept1 (Rattus norvegicus, UniProt P51574); test: Cellular transport assay, HEK-293 cells expressing rat Pept1; conditions: Danshen phenolic acid at 100 μM final concentration, 10 min, incubation pH 6.0; rat Pept1-transfected vs mock cells
T2 sequence (P51574 1-710): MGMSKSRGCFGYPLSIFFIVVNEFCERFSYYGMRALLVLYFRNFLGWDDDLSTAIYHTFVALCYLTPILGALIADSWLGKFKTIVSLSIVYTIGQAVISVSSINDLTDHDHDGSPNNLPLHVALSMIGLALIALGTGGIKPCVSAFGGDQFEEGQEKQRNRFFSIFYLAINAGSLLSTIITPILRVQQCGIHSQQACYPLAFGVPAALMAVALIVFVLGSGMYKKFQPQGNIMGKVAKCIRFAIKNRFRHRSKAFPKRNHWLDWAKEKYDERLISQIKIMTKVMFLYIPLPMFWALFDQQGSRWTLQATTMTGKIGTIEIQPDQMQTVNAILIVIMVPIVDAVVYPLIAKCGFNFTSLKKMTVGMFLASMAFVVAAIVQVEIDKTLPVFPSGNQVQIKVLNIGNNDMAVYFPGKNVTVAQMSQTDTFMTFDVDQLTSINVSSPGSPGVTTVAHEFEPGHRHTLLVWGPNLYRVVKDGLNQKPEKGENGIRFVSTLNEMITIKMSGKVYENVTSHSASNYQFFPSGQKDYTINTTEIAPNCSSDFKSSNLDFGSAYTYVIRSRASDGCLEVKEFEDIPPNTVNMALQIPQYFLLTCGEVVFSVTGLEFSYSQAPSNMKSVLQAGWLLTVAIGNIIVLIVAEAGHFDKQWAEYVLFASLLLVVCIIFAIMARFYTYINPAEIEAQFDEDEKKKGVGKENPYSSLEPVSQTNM

human OCT3 = target: T3, human OCT3 (Homo sapiens, UniProt O75751); test: Cellular transport assay, HEK-293 cells expressing human OCT3; conditions: Danshen phenolic acid at 100 μM final concentration, 10 min; human OCT3-transfected vs mock cells
T3 sequence (O75751 1-556): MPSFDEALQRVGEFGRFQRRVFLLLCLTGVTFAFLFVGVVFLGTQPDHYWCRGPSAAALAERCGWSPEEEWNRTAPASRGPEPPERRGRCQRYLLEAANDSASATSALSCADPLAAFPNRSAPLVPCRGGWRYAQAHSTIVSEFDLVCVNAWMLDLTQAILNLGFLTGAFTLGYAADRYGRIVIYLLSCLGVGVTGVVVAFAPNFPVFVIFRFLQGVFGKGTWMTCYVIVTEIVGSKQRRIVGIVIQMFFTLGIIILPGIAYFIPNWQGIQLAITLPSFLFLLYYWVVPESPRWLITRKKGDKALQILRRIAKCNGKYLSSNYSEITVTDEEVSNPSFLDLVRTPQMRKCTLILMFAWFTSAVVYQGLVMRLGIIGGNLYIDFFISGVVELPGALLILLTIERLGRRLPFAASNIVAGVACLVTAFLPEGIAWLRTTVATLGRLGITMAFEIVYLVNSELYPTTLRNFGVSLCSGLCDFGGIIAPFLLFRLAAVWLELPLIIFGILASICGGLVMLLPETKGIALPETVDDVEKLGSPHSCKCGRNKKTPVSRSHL

human PEPT2 = target: T4, human PEPT2 (Homo sapiens, UniProt Q16348); test: Cellular transport assay, HEK-293 cells expressing human PEPT2; conditions: Danshen phenolic acid at 100 μM final concentration, 10 min, incubation pH 6.0; human PEPT2-transfected vs mock cells
T4 sequence (Q16348 1-729): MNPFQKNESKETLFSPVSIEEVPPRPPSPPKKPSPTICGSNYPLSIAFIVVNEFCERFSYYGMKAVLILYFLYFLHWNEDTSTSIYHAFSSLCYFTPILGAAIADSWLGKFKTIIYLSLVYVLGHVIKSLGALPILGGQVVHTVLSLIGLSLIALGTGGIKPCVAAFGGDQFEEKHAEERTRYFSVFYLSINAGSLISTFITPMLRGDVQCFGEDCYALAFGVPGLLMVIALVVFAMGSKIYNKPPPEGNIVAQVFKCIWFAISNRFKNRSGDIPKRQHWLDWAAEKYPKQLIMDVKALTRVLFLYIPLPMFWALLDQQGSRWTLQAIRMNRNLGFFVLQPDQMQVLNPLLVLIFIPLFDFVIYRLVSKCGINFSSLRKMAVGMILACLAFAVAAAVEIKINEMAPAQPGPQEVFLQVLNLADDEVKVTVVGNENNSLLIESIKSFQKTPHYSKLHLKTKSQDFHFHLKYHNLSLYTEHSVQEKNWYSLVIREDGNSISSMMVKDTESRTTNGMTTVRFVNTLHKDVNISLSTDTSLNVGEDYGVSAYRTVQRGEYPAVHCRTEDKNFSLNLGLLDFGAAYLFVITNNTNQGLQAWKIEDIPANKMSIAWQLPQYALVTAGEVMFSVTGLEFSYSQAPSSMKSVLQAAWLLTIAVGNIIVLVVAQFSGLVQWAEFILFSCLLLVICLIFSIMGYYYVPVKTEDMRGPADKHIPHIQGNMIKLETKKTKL

Compound	TransportTC/TransportMC ratio (net transport ratio) (human OATP2B1)	TransportTC/TransportMC ratio (net transport ratio) (rat Pept1)	TransportTC/TransportMC ratio (net transport ratio) (human OCT3)	TransportTC/TransportMC ratio (net transport ratio) (human PEPT2)
O=C(O)Cc1c(/C=C/C(=O)O[C@H](Cc2ccc(O)c(O)c2)C(=O)O)ccc(O)c1O [Salvianolic acid D, salvianolic acid D]	2.27 ± 1.16	1.43 ± 0.36	0.94 ± 0.32	1.03 ± 0.11
O=C(/C=C/c1ccc(O)c2c1[C@H](C(=O)O)[C@@H](c1ccc(O)c(O)c1)O2)O[C@H](Cc1ccc(O)c(O)c1)C(=O)O [Lithospermic acid, lithospermic acid]	1.16 ± 0.27	1.31 ± 0.32	0.84 ± 0.15	0.74 ± 0.06
salvianolic acid B	1.32 ± 0.33	1.21 ± 0.45	0.75 ± 0.38	1.06 ± 0.12
O=C(O)c1ccc(O)c(O)c1 [Protocatechuic acid, protocatechuic acid]	1.36 ± 0.15	1.37 ± 0.36	0.94 ± 0.24	1.43 ± 0.32
O=C(/C=C/c1ccc(O)c(O)c1)O[C@H](Cc1ccc(O)c(O)c1)C(=O)O [Rosmarinic acid, rosmarinic acid]			0.75 ± 0.23	
